According to article PMC9914855, “UHPLC-MS Phenolic Fingerprinting, Aorta Endothelium Relaxation Effect, Antioxidant, and Enzyme Inhibition Activities of Azara dentata Ruiz & Pav Berries” (Foods, 2023):

What was measured:
[1] = system: human erythrocytes; assay: Lipid peroxidation in human erythrocytes; assay type: cell-based; conditions: at 100 µg/mL
Procedure: The lipid peroxidation in human erythrocytes (LP) assay was performed as described in a previous study with some modifications. Human blood cells (red) were used. After washing, the cells were suspended in phosphate-buffered saline (hemoglobin density of 1 mM). The final cell suspension with different concentrations of the test compounds was incubated and dissolved in DMSO and PBS for 10 min at 37 °C. After incubation, the cells were added to tert-butylhydroperoxide (1 mM) for 15 min at 37 °C. After this, the lipid peroxidation was obtained via the TBARs’ formation. The evaluation was performed in quadruplicate, and the results are shown as the inhibition percentage (IP) of lipid peroxidation in human erythrocytes (IPLP) contrasted to the control of catechin at 100 µg/mL and reported as the average ± SD. Healthy volunteer donors gave their informed consent for inclusion before participating in the study. The protocol assay was conducted in accordance with the Declaration of Helsinki and is included in the approved project by CICIT-CA-UNSJ-Argentina (Project code 80020190100277SJ, N 0591-20-R-UNSJ), referred to as an ethical and environmental safeguard and to preserve the hygiene and safety conditions in the activities to be carried out in laboratories.

[2] = biological target: T1, AChE (Homo sapiens, UniProt P22303); conditions: cited from earlier work
T1 construct: purchased Merck, Darmstadt, Germany
T1 sequence (P22303 32-614): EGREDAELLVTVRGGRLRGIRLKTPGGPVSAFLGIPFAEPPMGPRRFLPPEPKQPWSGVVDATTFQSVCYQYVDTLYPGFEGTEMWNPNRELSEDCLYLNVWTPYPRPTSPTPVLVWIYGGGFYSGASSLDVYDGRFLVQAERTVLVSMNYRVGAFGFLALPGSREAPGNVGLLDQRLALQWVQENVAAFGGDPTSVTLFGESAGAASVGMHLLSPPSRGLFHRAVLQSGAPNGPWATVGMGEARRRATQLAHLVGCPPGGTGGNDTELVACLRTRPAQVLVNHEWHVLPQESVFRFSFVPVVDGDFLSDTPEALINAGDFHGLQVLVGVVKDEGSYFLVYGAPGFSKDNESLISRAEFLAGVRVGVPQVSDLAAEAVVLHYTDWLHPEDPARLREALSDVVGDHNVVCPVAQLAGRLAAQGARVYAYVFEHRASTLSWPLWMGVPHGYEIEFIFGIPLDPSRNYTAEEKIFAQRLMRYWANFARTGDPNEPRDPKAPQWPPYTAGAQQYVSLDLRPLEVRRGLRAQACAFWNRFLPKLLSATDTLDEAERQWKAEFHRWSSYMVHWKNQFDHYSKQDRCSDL

[3] = biological target: amylase; conditions: cited from earlier work
[4] = biological target: lipase; conditions: cited from earlier work
[5] = biological target: T2, BChE (Homo sapiens, UniProt P06276); conditions: cited from earlier work
T2 construct: purchased Merck, Darmstadt, Germany
T2 sequence (P06276 29-602, species assumed): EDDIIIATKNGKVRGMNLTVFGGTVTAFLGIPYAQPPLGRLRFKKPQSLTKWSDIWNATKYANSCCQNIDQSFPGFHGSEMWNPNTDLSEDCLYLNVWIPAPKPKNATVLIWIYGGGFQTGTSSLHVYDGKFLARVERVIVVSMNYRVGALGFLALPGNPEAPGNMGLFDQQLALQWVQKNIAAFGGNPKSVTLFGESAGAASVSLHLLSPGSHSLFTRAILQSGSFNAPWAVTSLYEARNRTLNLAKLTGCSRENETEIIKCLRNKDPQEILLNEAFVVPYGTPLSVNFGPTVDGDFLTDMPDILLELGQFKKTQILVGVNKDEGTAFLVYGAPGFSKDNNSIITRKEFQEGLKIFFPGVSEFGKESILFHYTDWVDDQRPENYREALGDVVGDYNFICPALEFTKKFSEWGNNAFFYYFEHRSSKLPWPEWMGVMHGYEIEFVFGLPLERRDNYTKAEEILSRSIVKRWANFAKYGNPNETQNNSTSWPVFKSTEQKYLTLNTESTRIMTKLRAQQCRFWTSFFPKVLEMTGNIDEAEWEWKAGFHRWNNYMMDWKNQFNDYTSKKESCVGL

[6] = design: method as in PMID 36552522; conditions: read-out: GI50 (cytotoxic); cited from earlier work
[7] = biological target: butyrylcholinesterase (BChE); design: method as in PMID 36552522; conditions: cited from earlier work
[8] = biological target: acetylcholinesterase (AChE); design: method as in PMID 36552522; conditions: cited from earlier work
[9] = biological target: tyrosinase (Agaricus bisporus, UniProt C7FF04); design: method as in PMID 36552522; conditions: cited from earlier work
Chain of tyrosinase (C7FF04 1-392): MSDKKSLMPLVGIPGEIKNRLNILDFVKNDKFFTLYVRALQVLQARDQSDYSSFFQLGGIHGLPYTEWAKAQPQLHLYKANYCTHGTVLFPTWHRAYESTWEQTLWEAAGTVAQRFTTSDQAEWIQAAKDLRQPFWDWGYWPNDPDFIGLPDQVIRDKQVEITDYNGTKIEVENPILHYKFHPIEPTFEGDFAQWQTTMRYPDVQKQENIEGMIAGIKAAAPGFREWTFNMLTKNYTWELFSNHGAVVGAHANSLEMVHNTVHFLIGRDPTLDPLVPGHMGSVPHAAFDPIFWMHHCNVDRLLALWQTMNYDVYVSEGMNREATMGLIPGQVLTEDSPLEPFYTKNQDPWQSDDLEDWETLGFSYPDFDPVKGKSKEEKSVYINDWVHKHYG

O.Oc1cc(O)c2c(c1)O[C@H](c1ccc(O)c(O)c1)[C@@H](O)C2 [catechin]
IPLP (inhibition percentage of lipid peroxidation in human erythrocytes) [1]: 70%

O=C(/C=C/c1ccc(O)c(O)c1)O[C@@H]1C[C@](O)(C(=O)O)C[C@@H](O)[C@H]1O [chlorogenic acid, Chlorogenic acid]
IC50 [2]: 22.6 µM
amylase IC50 [3]: 498 ± 13 µg/mL
lipase IC50 [4]: 647 µg/mL
IC50 [5]: 17.8 µM

CC1=C(CC/C(C)=C/CO)[C@]2(C)CCCC(C)(C)C2CC1 (stereo partly drawn) [ent-labda-8,13-E-diene-15-ol]
GI50 [6]: 4.5 ± 0.1 µM

2-nor-1,2-secolycoserone [2-nor-1,2-secolycoserone coumarin]
BChE IC50 [7]: 11.23 ± 0.02 µg/mL
AChE inhibition [8]: 1.21 ± 0.03 µg/mL
tyrosinase IC50 [9]: 103.43 ± 16.86 µg/mL

N.N.[Cl][Pt][Cl] [cisplatin, reference compound]
GI50 [6]: 4.9 ± 0.2 µM
